In EP0472304A2, “Pharmaceutical compositions containing therapeutically active organosilane derivatives and process for preparing same” (Richter Gedeon Vegyészeti Gyár R.T., priority 1990, dated 1992):
Marks after values point to notes of the source that are not given here.

Legend:
[1] = tested on: Straub's tail; assay: Straub's tail test (morphine-induced); assay type: in vivo, male OF-1 mice; details: Mus musculus, ip; mice, i.p., pretreatment 20 min before reading; 60 mg/kg i.p. morphine hydrochloride
Experimental: Method 2: Straub's tail test
The method of Novack [Drug Development Res. 2, 383 (1982)] was used with a slight modification. Groups consisting of 10 male OF-1 mice each weighing 19 to 21 g were intraperitoneally treated with 60 mg/kg of morphine hydrochloride. The formation of Straub's tail was judged 15 minutes after the morphine treatment. This was considered to be positive when the animal kept his tail permanently upwards at an angle being steeper than 45°. A pretreatment was carried out with various doses of the compound to be tested 20 minutes before the time of reading. The ED50 value, i.e. the dose inhibiting the positive response in 50% of the animals, was calculated by using the method of Litchfield and Wilcoxon.
(The above author found a good relation between the activity shown in the above test and the clinical effectivity of central muscle relaxants.)

[2] = tested on: flexor reflex; assay: Investigation of the flexor reflex on anaesthetized cats; assay type: in vivo; details: chloralose-anaesthetized cats
Source text: Method 3: Investigation of the flexor reflex on anaesthetized cats
Chloralose-anaesthetized cats of both sexes weighing 2.2-5.4 kg each were used in these experiments. The flexor reflex of the animals was studied by using the quantitative electromyographic method of Farkas et al [Pharmacol. Res. Comm. 20, Suppl. 1, 141 (1988)].
The results summarized in Table 1 are the values calculated from the average results of 4 to 8 experiments. The duration of effect was characterized by the time passing from the administration of this dose until the return to 75% of the control value (T75%).
The pharmacological activities of the compounds showing the most prominent effects together with the activity of tolperisone used as reference drug are shown in Table 1.

[3] = tested on: GYKI-20039-induced tremor; assay: Test on the GYKI-20039-induced tremor; assay type: in vivo, male CFLP mice; details: Mus musculus, iv; mice, pretreatment time 0 min; dose causing 50% inhibition of tremor induced by 10 mg/kg i.p. GYKI-20039
Experimental: Method 1: Test on the GYKI-20039-induced tremor
Groups consisting of 10 to 20 male CFLP mice each weighing 19 to 21 g were intraperitoneally (i.p.) treated with 10 mg/kg of GYKI-20039 (test substance). Similarly to the structurally related compound of code number LON-954, GYKI-20039 induces a tremor on mice which is considered as the experimental model of the Parkinson's disease [Coward et al., Psychopharmacology 52, 165 (1977); Andrasi et al. IX Internat. Congress of Neuropathology, 1-98, 209, Vienna 1982]. The tremor induced by GYKI-20039 reaches a maximum strength 4 to 8 minutes following administration of the test substance, then it continuously diminishes and is finished within about 1 hour. According to our experiences obtained on ten known central muscle relaxants, this tremor can be inhibited by central muscle relaxants in a dose-dependent manner and is useful for the assay (evaluation) of the central muscle relaxant effects. After administration of the test substance, the mice were suspended on an isometric dynamometer in a light plastic box and the strength of the tremor was measured and quantified by electronic integration. The tremor strength of the mice was averaged in the 4th-8th minutes after treatment with the test substance.
The animals were pretreated with various doses of the muscle relaxants to be tested before the treatment with the test substance. […]

[4] = 10 mg/kg i.v., time until return to 75% of the control value

SMILES	ED50 [1] [mg/kg]	Duration of effect T75% ([2]; i.v., the effect of 5 mg/kg was investigated)	Duration of effect T75% [2, 4] [min]	ED50 [3] [mg/kg]
C[Si](C)(CN1CCCCC1)c1ccccc1.O=C(O)/C=C/C(=O)O [Compound 1, N-[(dimethyl-phenylsilyl)methyl]piperidine fumarate]	30.7	–	–	–
C[Si](C)(CN1CCCC1)c1ccccc1.Cl [Compound 3, N-[(dimethyl-phenylsilyl)methyl]pyrrolidine hydrochloride]	37.7	50** min	–	–
C[Si](C)(CN1CCCCC1)c1ccc(F)cc1.O=C(O)/C=C/C(=O)O [Compound 4, N-([dimethyl-(4-fluorophenyl)silyl]methyl)piperidine fumarate]	19.1	–	180	–
C[Si](C)(CN1CCCCC1)c1ccc(F)cc1.Cl [Compound 5, N-([dimethyl-(4-fluorophenyl)silyl]methyl)piperidine hydrochloride]	17.8	–	> 180	–
C[Si](C)(CN1CCCC1)c1ccc(F)cc1.Cl [Compound 6, N-([dimethyl-(4-fluorophenyl)silyl]methyl)pyrrolidine hydrochloride]	26.9	–	> 180	–
Cc1ccc(C(=O)C(C)CN2CCCCC2)cc1 (stereo not drawn) [Tolperisone, tolperisone, reference compound]	63	–	50	10.2
